# Measurements as given in patent US20090197279A1, “MICROTUBULE SYNTHESIS AS A BIOMARKER” (KINEMED, INC., priority 2005, published 2009).
# Assays:
# Type in all cases: in vivo, mouse
# [1] = test system: hippocampal MT subpopulations; assay: Tubulin abundance of MT subpopulations in hippocampus by Western blot for α-tubulin; details: 0.48 nmol glutamate ICVC; 24 hours; vs mock
# Method: (§1) FIG. 7 depicts the effects of ICV glutamate on the relative amounts of MT subpopulations and on total protein synthesis in murine hippocampus. (A, B) Tubulin abundances are measured by Western blot analysis for α-tubulin at 8 hour (A) and 24 hours (B). Subpopulations were total extract (total), free tubulin dimers, tau-associated MTs, tau-nonassociated (MAP2/STOP) MTs and cold stable (CS) MTs. Mock and glutamate infused ICVC mice are shown (cf. FIGS. 6A and B). […] (C) Fractional synthesis of total hippocampal proteins. Glutamate increased protein synthesis versus mock-treated animals (*p<0.01); this effect was blocked by coadministration with 0.66 pmol of Rp-cAMP (**p<0.02).
# (§2) Tubulin was purified using minor modifications of protocols described previously (Fanara, P., Oback, B., Ashman, K., Podtelejnikov, A., Brandt, R. Identification of MINUS, a small polypeptide that functions as a microtubule nucleation suppressor. EMBO J. 18, 565-577 (1999); Fanara, P. et al. In vivo measurement of microtubule dynamics using stable isotope labeling with heavy water. Effect of taxanes. J. Biol. Chem. 279, 49940-49947 (2004). Briefly, cultured neurons were gently scraped off culture plates, washed in phosphate-buffered saline (PBS), and homogenized in microtubule-stabilizing buffer. For purification ex vivo, mice were anesthetized with isoflurane and euthanized by cervical dislocation. Brains were rapidly removed and washed in microtubule-stabilizing buffer (MSB); hippocampi were dissected and gently homogenized in MSB. […] The relative abundance of tubulin in each preparation (Tubulin dimers and TAU5-bound, MAP2-bound, and unbound microtubule fractions) was quantified by Western blot, and tubulin from these fractions was further purified by ion exchange and size exclusion chromatography, as previously described (Fanara, P. et al. In vivo measurement of microtubule dynamics using stable isotope labeling with heavy water. Effect of taxanes. J. Biol. Chem. 279, 49940-49947 (2004)).
# [2] = test system: total hippocampal proteins; assay: Fractional synthesis of total hippocampal proteins; details: glutamate ICVC vs mock-treated animals
# Method: as §1
# This hypothesis had not previously been tested in the living brain, however. To test this hypothesis, we used the methods of the invention disclosed herein. Mice were infused with 6 μl water containing 0.48 nmol glutamate (80 μM in the infusate), or glutamate plus 0.66 pmol Rp-cAMP (110 nM in the infusate). Label incorporation into hippocampal tubulin dimers and into microtubule polymers was then quantified after administration of ^2H2O for 8 hours or 24 hours (FIGS. 7A and 7B). […] These findings further strengthen the previously reported correlation between hippocampus glutamate NMDA receptor-dependent learning (long-term potentiation) and protein synthesis (Kandel, E. R. The molecular biology of memory storage: a dialogue between genes and synapses. Science 294, 1030-1038 (2001)). By the same criterion, the glutamate-induced program of changes in hippocampal microtubule dynamics shown in FIGS. 6 and 7 also alters hippocampal total protein synthesis in vivo (data not show), further supporting the capacity of the invention disclosed herein to generate a biochemical record of basic neuroanatomic connectivity in the brain and thereby to reveal the dynamics of synaptogenesis in vivo.
# microtubule polymer = assay: Total abundance of microtubule polymer by Western blotting after CFC; details: conditioned mice, nocodazole 0.2 mg/kg; data not shown
# Text: as §2, with “buffer.” for “buffer. For purification ex vivo, mice were anesthetized with isoflurane and euthanized by cervical dislocation. Brains were rapidly removed and washed in microtubule-stabilizing buffer (MSB); hippocampi were dissected and gently homogenized in MSB.”
# To test the role of microtubule/tubulin exchange in hippocampus-dependent memory, we treated animals with nocodazole (0.2 mg/kg), a microtubule-depolymerizing agent, four hours prior to CFC training (FIG. 10A). […] The total abundance of microtubule polymer, as detected by Western blotting, was decreased as well (data not shown).
Structure (SMILES),"abundance of CS-MTs, Western blot [1]","abundance of MAP2/STOP-MTs (MAP2-associated microtubules), Western blot [1]","abundance of tau-MTs, Western blot [1]",fractional synthesis of total hippocampal proteins [2],fractional synthesis of total hippocampal proteins ([2]; listed as Glutamate),total abundance of microtubule polymer (Western blotting) (microtubule polymer)
"N[C@@H](CCC(=O)[O-])C(=O)[O-].[K+].[K+] [glutamate, potassium L-glutamate]",increased,increased,remained unchanged,alters,increased,
COC(=O)Nc1nc2ccc(C(=O)c3cccs3)cc2[nH]1 [nocodazole],,,,,,decreased
